Key:
[1] = system: human neuroblastoma cell line GOTO; assay: Activity on neuroblastoma cell line GOTO (cell number, number and length of neurites); format: cell-based; details: for Number of cells (mean ± S.E.): control 12.30 ± 1.48
Method in brief: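 GOTO cells were cultured 1–2 days at 37 °C, 5% CO2, then switched to serum-free RPMI/MEM (1:1) with compounds in PBS at various concentrations for 24 h. Living cells were counted by erythrosine exclusion (3–6 dishes); neurite number and length per cell were measured from photographs.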

[2] = system: mouse neuroblastoma cell line neuro-2a; assay: Activity on cell line neuro-2a (simple method); format: cell-based
Method in brief: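 Cells (2–6×10^4 per dish) grown 1–2 days at 37 °C, then switched to serum-free RPMI/MEM with compound in PBS for 24 h. Live cells counted by erythrosine exclusion; score is fraction of cells bearing neurites at least as long as the cell's long diameter, from photos.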

[3] = system: rats with lesioned nigral dopaminergic nerve cells; assay: Methamphetamine-induced rotational movement of rats with lesioned nigral dopaminergic nerve cells after transplantation of fetal cerebral cells; format: in vivo, rat (female Wistar); details: number within one minute
Experimental: Rats and mice models of central nervous disorders were prepared, and the pharmacological effects of the compounds (I) of this invention were tested. Specifically, nigral dopamine cells of the rat brain were chemically destroyed by injecting a very small amount of 6-hydroxydopamineto induce motor imbalance. Two weeks later, dopamine cells of fetal brain were transplanted in the caudate nucleus into the lesioned side of the rat brain and an attempt was made to improve the motor trouble. Specifically, beginning on the day of transplantation, the compound (I) of the invention was intraperitoneally administered every day over 2 weeks, and the activity of the compounds (I) of the invention on the improvement of the motor imbalance and the growth of the transplanted cells was examined.
Promoting effect on the improvement of motor imbalance due to injury of the rat's brain cells by transplantation of fetal cerebral cells:
Nigral dopaminergic nerve cells at the left side of the brain of 4-week old female Wistar rats (body weight 100 g) were lesioned by injecting a very small quantity of 6-hydroxydopamine. […] Upon administration of methamphethamine (5 mg/kg, i.p.) to the rats having the lesioned nigral dopaminergic nerve cells, they began rotational movement toward the lesioned side.
After two weeks from the destruction by the administration of the drug, portions of the […] containing dopamine cells (i.e., substantia nigra and the tagmentum at the abdomen side) were cut from the brain of a fetal rat of 14 to 17 days of age, cut finely, and treated with trypsin. Then, the extracted tissues were incubated at 37° C. for 30 minutes, and the tissues were subjected to pipetting to form a suspension. Five microliters of the suspension was transplanted each into two sites of the caudate nucleus of the lesioned side (10 microliters in total, about 10^5 cells).
Each of the compounds (I) in a dose of 100 mg/kg (i.p.) was administered every day over two weeks from the day of transplantation. The rotational movements induced by administration of methamphetamine were examined 2 weeks and 1 week before, and 2 weeks and 4 weeks after, the transplantation and the administration of the drug. The number of rotational movements within one minute was counted at intervals of 10 minutes after the administration of methamphetamine, and the total number of rotational movements counted six times was averaged to find a mean number of the rotational movements.

mice = assay: Acute toxicity, mouse; format: in vivo; details: 24 hours; for Number of dead animals/number of test animals: Table 7, 1000 mg/kg p.o.; for Presumed LD50: Table 7, p.o.
Experimental: The acute toxicity of the compounds of the invention was examined by the following method.
Male ddy-strain 5-week old mice and male Wistar-strain 8 week old rats, five per group, were used as experimental animals. Each of the compounds was dissolved in saline and administered perorally, and the toxicity of the compound was assessed 24 hours after the administration.

[4] = Table 1 Run No. 2, 1 μg/ml, control 2.06 ± 0.60
[5] = Table 1 Run No. 2, 1 μg/ml, control 55.00 ± 37.26
[6] = Table 1 Run No. 2, 10 μg/ml, control 2.06 ± 0.60
[7] = Table 1 Run No. 2, 10 μg/ml, control 55.00 ± 37.26
[8] = Table 2 neuro-2a Run No. 2, 1 μg/ml, control 7.9
[9] = Table 2 neuro-2a Run No. 2, 10 μg/ml, control 7.9
[10] = Run No. 1, 1 week before transplantation, saline 12.23 ± 4.88
[11] = Run No. 1, 2 weeks after transplantation, 100 mg/kg i.p. daily over two weeks, saline 5.9 ± 2.75
[12] = Run No. 1, 2 weeks before transplantation, saline 10.9 ± 4.57
[13] = Run No. 1, 4 weeks after transplantation, 100 mg/kg i.p. daily over two weeks, saline 3 ± 3.23
[14] = Run No. 2, 1 week before transplantation, saline 10 ± 5.3
[15] = Run No. 2, 2 weeks after transplantation, 100 mg/kg i.p. daily over two weeks, saline 4.4 ± 5.9
[16] = Run No. 2, 2 weeks before transplantation, saline 12 ± 3.95
[17] = Run No. 2, 4 weeks after transplantation, 100 mg/kg i.p. daily over two weeks, saline 1.5 ± 3.2

Compound | Number of neurites/cell (mean ± S.D.) [1, 4] [neurites/cell] | Number of cells (mean ± S.E.) ([1]; Table 1 Run No. 2, 1 μg/ml) | Length of neurites (mean ± S.D.) [1, 5] [μm/cell] | Number of neurites/cell (mean ± S.D.) [1, 6] [neurites/cell] | Number of cells (mean ± S.E.) ([1]; Table 1 Run No. 2, 10 μg/ml) | Length of neurites (mean ± S.D.) [1, 7] [μm/cell] | Average of the proportions [2, 8] [%] | Average of the proportions [2, 9] [%] | Number of rotational movements (mean ± S.D.) [3, 10] | Number of rotational movements (mean ± S.D.) [3, 11] | Number of rotational movements (mean ± S.D.) [3, 12] | Number of rotational movements (mean ± S.D.) [3, 13] | Number of rotational movements (mean ± S.D.) [3, 14] | Number of rotational movements (mean ± S.D.) [3, 15] | Number of rotational movements (mean ± S.D.) [3, 16] | Number of rotational movements (mean ± S.D.) [3, 17] | other results
CN1C(=O)Cc2cnc(N3CCNCC3)nc21 [Compound 408] | 2.11 ± 0.65 | 17.52 ± 2.57 × 10^4 /dish | 66.09 ± 36.49 | 2.17 ± 0.66 | 13.07 ± 0.80 × 10^4 /dish | 69.33 ± 40.68 | 27.73 | 25.05 | 12.27 ± 2.48 | 4.9 ± 2.38 | 8.57 ± 2.36 | 2.03 ± 1.56 | 11.06 ± 4.5 | 1.94 ± 2.0 | 10.94 ± 6.4 | 1.53 ± 2.1 | Number of dead animals/number of test animals (mice; 1000 mg/kg): 0/5; Presumed LD50 (mice): > 1000 mg/kg p.o.
CN1Cc2nc(N3CCNCC3)ncc2C1=O [Compound 604] | 2.29 ± 0.77 | 14.41 ± 2.98 × 10^4 /dish | 76.30 ± 51.49 | 2.27 ± 0.62 | 11.85 ± 1.36 × 10^4 /dish | 72.06 ± 42.79 | 19.86 | 17.20 | 10.4 ± 5.75 | 2.99 ± 2.91 | 10.6 ± 3.82 | 3.37 ± 1.65 | 11.28 ± 4.0 | 1.03 ± 2.9 | 13.33 ± 4.9 | 0.75 ± 2.8 | Length of neurites (mean ± S.D.) ([1]; Table 1, Run No. 6 by footnote, 1 μg/ml, control 42.48 ± 19.64, all *P <0.01): 58.88 ± 22.72 μm/cell; Number of neurites/cell (mean ± S.D.) ([1]; Table 1, second control group (Run No. 6 by footnote), 1 μg/ml, control 1.79 ± 0.80): 2.23 ± 0.81 neurites/cell; Average of the proportions ([2]; Table 2 neuro-2a Run No. 3, 0.01 μg/ml, control 2.0): 10.7%; Average of the proportions ([2]; Table 2 neuro-2a Run No. 3, 0.1 μg/ml, control 2.0): 16.50%; Average of the proportions ([2]; Table 2 neuro-2a Run No. 3, 1 μg/ml, control 2.0): 11.25%; Number of dead animals/number of test animals (mice): 0/5; Presumed LD50 (mice; 1440 min): > 1000 mg/kg p.o.

From patent publication US4959368A, “Therapeutic agent for neurological diseases” (Mitsui Petrochemical Industries Ltd., priority 1986, dated 1990)
